Experimental data: patent US20250034515A1, “Method of Production of Organoids and Uses Thereof” (Université de Strasbourg, priority 2021, published 2025)

Tested on: Aspc-1 cells
Test: Viability of pancreatic cancerous 3D organoids in liquid pearls (Calcein-AM / propidium iodide, Celigo image cytometry)
Type: cell-based, human
Conditions: AsPC-1 organoids in liquid pearls; Gemcitabine 80 μM
Experimental: FIG. 4. Effects of an ethanolic plant extract on 3D cultured cells viability. Pancreatic cancer cells seeded at 10^5 cells/mL were injected and grown in liquid pearls at a volume of 150 μL for 24 hours, then exposed to ethanolic extract #138-10D (80 μg/ml), vehicle or Gemcitabine (80 μM). After 24 hours of incubation, the cells were labeled (Calcein-AM=green-living cells and propidium iodide=red-dead cells). The composite image of the two channels was analyzed by imaging cytometry.
In a first step, medium filling the pearls is prepared using DMEMhigh glucose complete medium supplemented by 1.2% of methylcellulose solution (MC) at a ratio of 4 to 1. For spheroid generation, 150 μL of pearls medium were dispensed onto fumed silica-coated 6-well plates, then Aspc-1 cells, at a density of 10,000 cells/mL, were directly injected into each pearl. The injected pearls were then incubated in a humidified incubator at 37 C° and 5% CO2.
After 24 hours, 50 μL of complete medium containing the different extracts (final concentration 80 μg/mL) were injected into each pearl and incubated for an additional 48 hours. […] Pearls containing cancerous organoids were finally analyzed on Celigo image cytometer (Cyntellect Inc, San Diego, CA, USA).

## Nc1ccn([C@@H]2O[C@H](CO)[C@@H](O)C2(F)F)c(=O)n1 [Gemcitabine]
  activity on AsPC-1 cells (3D cultured cells viability): only active on AsPC-1 cells at a concentration of 80 μM
